{"source": "paper PMC4511415", "about": "“Inhibition of ANO1/TMEM16A Chloride Channel by Idebenone and Its Cytotoxicity to Cancer Cell Lines” (PLoS ONE, 2015)", "target": "T1, ANO1 (anoctamin 1, TMEM16A) (Homo sapiens, UniProt Q5XXA6)", "T1 construct": "human ANO1(abc)", "T1 sequence (Q5XXA6 1-986)": "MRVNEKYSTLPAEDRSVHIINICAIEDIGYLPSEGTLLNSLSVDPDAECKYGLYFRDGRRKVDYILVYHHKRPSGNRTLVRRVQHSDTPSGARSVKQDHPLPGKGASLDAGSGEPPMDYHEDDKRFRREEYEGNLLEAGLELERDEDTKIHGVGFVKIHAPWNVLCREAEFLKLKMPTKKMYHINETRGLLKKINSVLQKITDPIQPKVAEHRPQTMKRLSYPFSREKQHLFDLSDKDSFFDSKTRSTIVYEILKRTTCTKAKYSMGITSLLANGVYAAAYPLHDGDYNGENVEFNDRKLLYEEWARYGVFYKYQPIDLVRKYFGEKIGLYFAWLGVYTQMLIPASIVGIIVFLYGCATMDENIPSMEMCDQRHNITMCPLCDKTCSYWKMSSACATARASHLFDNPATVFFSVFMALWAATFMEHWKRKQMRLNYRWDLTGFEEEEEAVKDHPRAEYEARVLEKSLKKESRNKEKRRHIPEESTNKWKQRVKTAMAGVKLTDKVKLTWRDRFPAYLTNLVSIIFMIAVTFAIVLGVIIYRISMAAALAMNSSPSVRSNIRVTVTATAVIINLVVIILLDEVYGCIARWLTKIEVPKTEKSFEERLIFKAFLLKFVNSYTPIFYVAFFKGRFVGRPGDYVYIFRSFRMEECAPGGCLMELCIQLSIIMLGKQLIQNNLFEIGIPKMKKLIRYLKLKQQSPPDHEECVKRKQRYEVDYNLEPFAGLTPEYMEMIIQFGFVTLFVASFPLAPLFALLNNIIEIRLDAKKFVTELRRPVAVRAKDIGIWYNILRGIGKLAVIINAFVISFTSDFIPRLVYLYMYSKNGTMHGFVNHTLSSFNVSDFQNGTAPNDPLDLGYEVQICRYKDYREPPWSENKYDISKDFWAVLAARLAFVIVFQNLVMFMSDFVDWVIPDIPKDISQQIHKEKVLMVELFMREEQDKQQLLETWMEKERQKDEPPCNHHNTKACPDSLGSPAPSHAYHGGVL", "experiment": "apical membrane current (Ussing chamber) in FRT-ANO1 cells; whole-cell patch clamp; YFP iodide influx", "type": "cell-based"}
{"smiles": "COC1=C(OC)C(=O)C(CCCCCCCCCCO)=C(C)C1=O", "note": "[idebenone, 2,3-dimethoxy-5-methyl-6-(10-hydroxydecyl)-21,4-benzoquinone]", "values": [{"measurement": "IC50", "value": 9.2, "unit": "µM"}]}
